Values of other authors in patent US10117956B2, “Radiolabeled active targeting pharmaceutical composition and the use thereof” (Institute of Nuclear Energy Research Atomic Energy Council, …, priority 2013, dated 2018).

Conditions: 30 minutes after injection

concentration in the blood: 1.11 % ID/g
SMILES: O=C[C@H](O)[C@@H](O)[C@H](O)[C@H](O)CF [6-FDG, 6-fluoro-6-deoxy-D-glucose]
